Experimental findings from patent US8815954B2, “Arginine heteromers for topical administration” (Revance Therapeutics, Inc., priority 2005, dated 2014) are described below.

The subject of one test is murine skin. In words: In vivo cumulative efficacy for topical delivery of arginine across murine skin; morphological assessment of treated skin sections by image analysis. Also on record: species or system C57 black 6 female mice. As to conditions: mice, topical 200 μl once daily for 7 days in Cetaphil cream, dorsal skin harvested 24 hours after last treatment, H&E image analysis. As to the method: In vivo cumulative efficacy for topical delivery of arginine across murine skin.
The potential for a heteromer of arginine to cross the skin and exert previously characterized benefits related to arginine/NOS activity was evaluated by examining arginine-vitamin E and arginine-palmitate heteromers in an animal model system. While both heteromers improve the lipid solubility relative to arginine alone and should increase transdermal flux, the vitamin E heteromer is also expected to afford additional functional benefits due to its anti-oxidant properties.
1. Arg-palmitate: 0.9996 g of arginine+palmitate were dissolved in 6 ml of jojoba oil (Essential Wholesale, Portland, Oreg.), then diluted with 6 ml (1:1 dilution) of Cetaphil cream.
2. Arg-vitamin E: 0.419 g of arginine+vitamin E were dissolved in 6 ml of deionized H2O then diluted with 6 ml (1:1 dilution) of Cetaphil cream.
Daily-dose topical treatments of metered 200 μl aliquots were prepared for treatments of Arg-palmitate, Arg-vitamin E, or Cetaphil control in 650 μl microcentrifuge tubes.
Animals (C57 black 6 female mice, Charles River Laboratories, Wilmington, Mass.) were anesthetized via inhalation of isoflurane mixed with oxygen and then injected with 0.5 ml rodent anesthetic cocktail (3.75 ml of 100 mg/ml Ketamine, 3.00 ml of 20 mg/ml Xylazine, and 23.25 ml of saline) intraperitoneally. The animals were supplemented with isoflurane as necessary. Treatment groups contained 4 mice each and the control group 3 mice. After being anesthetized, a 2.0 cm×2.0 cm dose site on the dorsum of each mouse was carefully shaved with a hair clipper on the first day of treatment application and animals underwent depilatory treatment in the same dorsal region using a rosin mixture (Surgiwax, Ardell International, Los Angeles, Calif.). Animals were anesthetized via inhalation of isoflurance only during the application of treatments in Cetaphil moisturizing cream (Galderma, Fort Worth, Tex.) and had metered 200 μl doses of the appropriate treatment applied to the cranial portion of dorsal back skin (selected because the mouse cannot reach this region with mouth or limbs). Animals remained under anesthesia for 1-2 minutes while the appropriate treatment was applied into the skin with small metal spatula. […]
High resolution digital images of each section were obtained using a Retiga 1300B camera (QImaging, Burnaby, BC, Canada). Images were analyzed using Image-Pro Plus analysis software (Media Cybernetics, Silver Springs, Md.) to determine morphological assessment and expressed as positive pixels. Mean and standard error were subsequently determined for each group using Statview software (Abacus, Berkeley, Calif.), with analysis of significance at 95% confidence in Wilcoxon signed ranks.

Test [1] has as its system human forehead skin perfusion. In words: Human forehead tissue perfusion by Laser Doppler Flowmeter after topical application. The class given is in vivo. As to conditions: lip balm formulation 4.0 mg/ml topical, readings every 30 seconds for 5 minutes from one minute after application (n=55). As to the method:
Mean and standard error were assessed using Statview (Abacus Concepts, Berkeley, Calif.), with comparisons made using ANOVA repeated measures and significance determined at 95% with post-hoc testing using Fisher PLSD or Scheffe F-test. All procedures and analyses were performed by blinded observers.

`Cc1c(C)c2c(c(C)c1OC(=O)C(N)CCCNC(=N)N)CCC(C)(CCCC(C)CCCC(C)CCCC(C)C)O2` (centres unmarked) [Arg-Vitamin E]: in the test on murine skin, the “Dermis: dermal thickness, Mean” value is recorded as 35779 positive pixels; the “Epidermis: epidermal thickness, Mean” value came to 16475 positive pixels; the “Fat: fat thickness/density, Mean” value was determined as 21386 positive pixels; the “Hair: hair length, Mean” value turned out to be 18316 positive pixels. Besides, in test [1], the “Forehead perfusion, Mean” value came to 8.016 tissue perfusion units.
